Reference: patent US20060194860A1, “Pharmaceutical compositions containing aryl or heteroaryl azolylcarbinol compounds” (GRUENENTHAL GMBH, priority 2003, published 2006)

Target: T1, 5-HT reuptake (Homo sapiens, UniProt P31645)
T1 construct: in a system with neurological tissue under physiological conditions; from tissue
Assay: Functional measurement of the 5-HT uptake / inhibition of serotonin uptake (tritium-marked 5-HT, neurological tissue)
Assay type: biochemical
Conditions: uptake of tritium-marked 5-HT in neurological tissue under physiological conditions; three independent tests
Description: Functional Measurement of the 5-HT-Uptake or the Inhibition of Serotonin Uptake
The uptake of tritium-marked 5-HT (serotonin) as a function of the concentration of the added substance 5-{α-[2-(methylamino)ethoxy]benzyl}-1-methyl-1H-pyrazole in a system with neurological tissue under physiological conditions.

T1 sequence (P31645 whole entry): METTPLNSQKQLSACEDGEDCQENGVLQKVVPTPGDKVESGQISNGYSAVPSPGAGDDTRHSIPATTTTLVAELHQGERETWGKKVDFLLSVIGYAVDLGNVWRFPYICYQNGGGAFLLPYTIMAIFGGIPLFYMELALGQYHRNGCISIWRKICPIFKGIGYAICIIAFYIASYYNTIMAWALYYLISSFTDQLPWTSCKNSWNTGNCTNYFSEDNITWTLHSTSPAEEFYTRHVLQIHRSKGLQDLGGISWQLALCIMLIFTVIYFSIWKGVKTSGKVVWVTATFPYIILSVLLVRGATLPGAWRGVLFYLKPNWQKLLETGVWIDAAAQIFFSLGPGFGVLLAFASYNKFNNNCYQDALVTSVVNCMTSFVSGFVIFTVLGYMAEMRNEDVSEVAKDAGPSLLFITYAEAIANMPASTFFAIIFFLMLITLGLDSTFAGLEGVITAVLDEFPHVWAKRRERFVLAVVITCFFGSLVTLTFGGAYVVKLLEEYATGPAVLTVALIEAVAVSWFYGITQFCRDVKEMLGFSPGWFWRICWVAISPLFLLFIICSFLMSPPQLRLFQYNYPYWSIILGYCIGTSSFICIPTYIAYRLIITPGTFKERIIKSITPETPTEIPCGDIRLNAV

`CNCCOC(c1ccccc1)c1ccnn1C` (stereo not drawn) [5-{α-[2-(methylamino)ethoxy]benzyl}-1-methyl-1H-pyrazole] showed a Ki of 530 ± 100 nM.
